Measurements: patent US20180193330A1, “ALKYLATED TETRAHYDROISOQUINOLINES FOR BINDING TO CENTRAL NERVOUS SYSTEM RECEPTORS” (Florida A&M University, priority 2017, published 2018)
Structures can show the parent of a compound that is named as a salt. Where two headings read alike, the source gives them in different places.

Tests used:
5-HT7 receptor = 5-HT7 receptor (Homo sapiens, UniProt P34969); experiment: Receptor binding affinity at 5-HT7 (NIMH-PDSP radioligand binding)
5-HT2C receptor = biological target: T1, 5-HT2C receptor (Homo sapiens, UniProt P28335); experiment: Receptor binding affinity at 5-HT2C (NIMH-PDSP radioligand binding)
T1 sequence (P28335 33-458): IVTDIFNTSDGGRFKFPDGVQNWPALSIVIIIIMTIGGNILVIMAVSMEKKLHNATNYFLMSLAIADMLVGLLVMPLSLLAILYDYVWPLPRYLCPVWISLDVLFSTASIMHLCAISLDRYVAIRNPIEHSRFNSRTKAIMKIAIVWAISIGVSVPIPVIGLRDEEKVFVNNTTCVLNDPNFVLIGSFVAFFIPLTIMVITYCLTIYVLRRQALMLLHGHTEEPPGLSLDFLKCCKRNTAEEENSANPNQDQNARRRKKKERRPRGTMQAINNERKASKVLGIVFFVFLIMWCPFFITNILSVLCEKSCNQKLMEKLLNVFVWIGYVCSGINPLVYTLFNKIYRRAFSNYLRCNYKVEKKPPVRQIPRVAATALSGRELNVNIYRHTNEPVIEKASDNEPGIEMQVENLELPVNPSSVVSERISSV

D3 receptor = D3 receptor (Homo sapiens, UniProt P35462); experiment: Receptor binding affinity at dopamine D3 (NIMH-PDSP radioligand binding)
Sequence of D3 receptor (P35462 whole entry): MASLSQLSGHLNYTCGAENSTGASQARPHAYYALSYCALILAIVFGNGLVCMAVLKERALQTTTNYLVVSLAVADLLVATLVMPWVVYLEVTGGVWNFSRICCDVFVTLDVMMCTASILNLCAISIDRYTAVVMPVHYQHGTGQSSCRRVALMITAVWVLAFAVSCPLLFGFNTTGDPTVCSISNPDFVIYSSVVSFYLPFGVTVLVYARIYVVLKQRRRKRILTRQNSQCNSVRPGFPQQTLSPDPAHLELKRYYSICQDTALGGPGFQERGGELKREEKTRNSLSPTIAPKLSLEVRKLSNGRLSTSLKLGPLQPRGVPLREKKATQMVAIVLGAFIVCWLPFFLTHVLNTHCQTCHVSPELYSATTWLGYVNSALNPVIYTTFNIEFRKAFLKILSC

histamine H1 receptor = histamine H1 receptor (Homo sapiens, UniProt P35367); experiment: Receptor binding affinity at histamine H1 (NIMH-PDSP radioligand binding)
Sequence of histamine H1 receptor (P35367 whole entry, species assumed): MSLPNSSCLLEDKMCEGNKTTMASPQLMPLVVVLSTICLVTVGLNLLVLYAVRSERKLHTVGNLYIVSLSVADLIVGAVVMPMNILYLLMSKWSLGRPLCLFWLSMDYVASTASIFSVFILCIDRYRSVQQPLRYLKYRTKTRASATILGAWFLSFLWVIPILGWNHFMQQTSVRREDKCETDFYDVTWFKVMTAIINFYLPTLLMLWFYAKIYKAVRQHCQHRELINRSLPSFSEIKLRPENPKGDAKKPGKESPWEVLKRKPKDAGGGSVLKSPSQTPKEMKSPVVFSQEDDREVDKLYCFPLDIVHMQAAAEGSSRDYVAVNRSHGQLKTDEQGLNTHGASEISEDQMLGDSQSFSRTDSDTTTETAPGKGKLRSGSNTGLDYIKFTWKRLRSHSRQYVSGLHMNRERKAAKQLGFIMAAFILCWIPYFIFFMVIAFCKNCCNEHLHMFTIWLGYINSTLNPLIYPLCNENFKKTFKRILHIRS

5-HT1A receptor = biological target: T2, 5-HT1A receptor (Homo sapiens, UniProt P08908); experiment: Receptor binding affinity at 5-HT1A (NIMH-PDSP radioligand binding)
T2 sequence (P08908 1-422): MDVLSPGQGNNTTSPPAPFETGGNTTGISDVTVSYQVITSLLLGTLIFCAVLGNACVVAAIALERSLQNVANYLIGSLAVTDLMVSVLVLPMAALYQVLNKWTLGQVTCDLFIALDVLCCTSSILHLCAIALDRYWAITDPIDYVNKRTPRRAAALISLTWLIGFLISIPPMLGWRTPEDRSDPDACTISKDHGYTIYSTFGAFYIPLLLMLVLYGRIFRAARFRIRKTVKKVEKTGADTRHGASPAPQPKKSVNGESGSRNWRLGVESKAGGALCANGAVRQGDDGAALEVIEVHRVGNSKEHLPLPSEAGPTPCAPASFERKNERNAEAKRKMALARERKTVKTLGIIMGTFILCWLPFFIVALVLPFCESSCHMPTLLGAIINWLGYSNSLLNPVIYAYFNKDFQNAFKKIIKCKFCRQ

5-HT2A receptor = 5-HT2A receptor (Homo sapiens, UniProt P28223); experiment: Receptor binding affinity at 5-HT2A (NIMH-PDSP radioligand binding); conditions: Table 5, Group 3 analogs
Sequence of 5-HT2A receptor (P28223 whole entry): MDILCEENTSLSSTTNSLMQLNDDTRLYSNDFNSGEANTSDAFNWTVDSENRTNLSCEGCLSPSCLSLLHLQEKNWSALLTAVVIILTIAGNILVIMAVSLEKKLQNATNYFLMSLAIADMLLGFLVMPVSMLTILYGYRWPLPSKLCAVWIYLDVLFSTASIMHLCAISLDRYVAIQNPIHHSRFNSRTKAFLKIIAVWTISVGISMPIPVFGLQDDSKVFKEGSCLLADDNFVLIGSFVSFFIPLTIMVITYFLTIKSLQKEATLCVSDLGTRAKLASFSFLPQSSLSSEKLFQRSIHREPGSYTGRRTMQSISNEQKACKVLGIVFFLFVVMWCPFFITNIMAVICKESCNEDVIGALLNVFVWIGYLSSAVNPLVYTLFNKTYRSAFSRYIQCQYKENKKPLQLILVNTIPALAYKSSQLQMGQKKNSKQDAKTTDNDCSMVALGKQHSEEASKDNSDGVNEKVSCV

5-HT2B receptor = 5-HT2B receptor (Homo sapiens, UniProt P41595); experiment: Receptor binding affinity at 5-HT2B (NIMH-PDSP radioligand binding); conditions: for Ki: Table 1, FIG. 7 analogs
Sequence of 5-HT2B receptor (P41595 whole entry): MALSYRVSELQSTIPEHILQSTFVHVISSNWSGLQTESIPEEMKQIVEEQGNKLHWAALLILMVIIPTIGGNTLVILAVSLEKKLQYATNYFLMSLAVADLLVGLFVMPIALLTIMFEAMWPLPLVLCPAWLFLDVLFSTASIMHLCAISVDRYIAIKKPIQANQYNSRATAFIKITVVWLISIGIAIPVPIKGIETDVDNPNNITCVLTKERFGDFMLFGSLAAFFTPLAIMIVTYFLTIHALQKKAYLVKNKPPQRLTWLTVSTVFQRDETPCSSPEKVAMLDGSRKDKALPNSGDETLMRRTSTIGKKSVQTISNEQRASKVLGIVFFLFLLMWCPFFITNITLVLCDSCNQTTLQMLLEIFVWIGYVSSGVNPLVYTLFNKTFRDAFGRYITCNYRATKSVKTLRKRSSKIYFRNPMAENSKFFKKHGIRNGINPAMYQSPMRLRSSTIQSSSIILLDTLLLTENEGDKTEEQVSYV

D4 receptor = biological target: T3, D4 receptor (Homo sapiens, UniProt P21917); experiment: Receptor binding affinity at dopamine D4 (NIMH-PDSP radioligand binding); conditions: Table 5, Group 3 analogs
T3 sequence (P21917 1-419): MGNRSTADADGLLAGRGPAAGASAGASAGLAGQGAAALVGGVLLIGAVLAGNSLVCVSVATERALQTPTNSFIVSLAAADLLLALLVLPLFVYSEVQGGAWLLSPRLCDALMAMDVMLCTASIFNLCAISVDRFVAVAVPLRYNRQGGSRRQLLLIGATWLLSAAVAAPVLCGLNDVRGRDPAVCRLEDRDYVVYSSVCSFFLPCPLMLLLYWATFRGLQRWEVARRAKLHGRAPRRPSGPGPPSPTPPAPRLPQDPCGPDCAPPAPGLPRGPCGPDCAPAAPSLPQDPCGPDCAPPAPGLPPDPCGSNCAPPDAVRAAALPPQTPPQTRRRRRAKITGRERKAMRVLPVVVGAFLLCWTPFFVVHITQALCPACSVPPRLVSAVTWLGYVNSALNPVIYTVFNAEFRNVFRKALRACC

[1] = Table 5, Group 3 analogs, Ki without SEM within 20% of mean
[2] = Table 1, FIG. 7 analogs, read-out: Ki 5-HT2C
[3] = Table 1, FIG. 7 analogs, read-out: pKi 5-HT2C (converted)

Sequence of 5-HT7 receptor (P34969 whole entry): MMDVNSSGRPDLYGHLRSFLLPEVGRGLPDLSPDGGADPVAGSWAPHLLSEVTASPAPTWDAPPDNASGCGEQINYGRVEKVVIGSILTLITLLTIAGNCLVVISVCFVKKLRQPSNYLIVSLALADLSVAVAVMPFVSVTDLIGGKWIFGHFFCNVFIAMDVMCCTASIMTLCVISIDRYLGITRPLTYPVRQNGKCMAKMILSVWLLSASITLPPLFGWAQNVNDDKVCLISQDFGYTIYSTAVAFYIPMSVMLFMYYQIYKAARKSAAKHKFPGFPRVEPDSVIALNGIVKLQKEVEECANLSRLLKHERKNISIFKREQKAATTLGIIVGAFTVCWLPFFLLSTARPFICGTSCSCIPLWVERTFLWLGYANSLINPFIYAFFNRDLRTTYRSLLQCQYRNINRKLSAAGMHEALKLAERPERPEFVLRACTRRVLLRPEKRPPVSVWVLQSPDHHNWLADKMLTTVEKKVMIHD

Question: With `Clc1ccc(C(=CCCN2CCc3ccccc3C2)c2ccc(Cl)cc2)cc1` [Compound 2c, 2-(4,4-Bis(4-chlorophenyl)but-3-en-1-yl)-1,2,3,4-tetrahydroisoquinineol hydrobromide] as the molecule, how does the “pKi ± SEM 5-HT7” value (5-HT7 receptor; Table 4, Group 2 analogs) read?
Answer: (6.3 ± 0.07)

Question: And the Ki (5-HT2C receptor; Table 4, Group 2 analogs, read-out: Ki 5-HT2C)?
Answer: 2030 nM

Question: What about the Ki (D3 receptor; Table 4, Group 2 analogs) of the same molecule?
Answer: 150 nM

Question: And the “pKi ± SEM D3” value (D3 receptor; Table 4, Group 2 analogs)?
Answer: (6.8 ± 0.1)

Question: What about the “pKi ± SEM H1” value (histamine H1 receptor; Table 4, Group 2 analogs) of the same molecule?
Answer: (6 ± 0.07)

Question: What does the source list for `CC1(C)CC(=O)N(CCCCN2CCc3ccccc3C2)C(=O)C1.Cl` [Compound 2d, 1-(4-(3,4-dihydroisoquinolin-2(1H)-yl)butyl)-4,4-dimethylpiperidine-2,6-dione hydrochloride]?
Answer: Ki (D3 receptor; Table 4, Group 2 analogs): 1640 nM; pKi ± SEM D3 (D3 receptor; Table 4, Group 2 analogs): (5.8 ± 0.1)

Question: With `O=C1c2ccccc2C(=O)N1CCCCN1Cc2ccccc2C1` [Compound 3, 2-(4-(Isoindolin-2-yl)butyl)isoindoline-1,3-dione] as the molecule, how does the “Ki 5-HT1A” value (5-HT1A receptor) read?
Answer: MTA (MTA = Missed 50% of threshold inhibition.)

Question: What about the “Ki H1” value (histamine H1 receptor) of the same molecule?
Answer: MTA (MTA = Missed 50% of threshold inhibition.)

Question: Which Ki (5-HT2C receptor; read-out: Ki 5-HT2C) does the source give for `O=C(CCCN1CCCc2ccccc21)c1ccc(Cl)cc1` [Compound 3c, 1-(4-Chlorophenyl)-4-(3,4-dihydroquinolin-1(2H)-yl) butan-1-one] here?
Answer: > 10000 nM

Question: What about the melting point of the same molecule?
Answer: 192 to 193 °C

Question: For `Cl.O=C(CCCN1CCCCc2ccccc21)c1ccc(Cl)cc1` [Compound 3d, 1-(4-Chlorophenyl)-4-(2,3,4,5-tetrahydro-1H-benzo[b]azepin-1-yl)butan-1-one hydrochloride], which melting point is on record?
Answer: 192 to 193 °C

Question: For `Cl.O=C(CCCN1CCc2ccccc2CC1)c1ccc(Cl)cc1` [Compound 3f, 1-(4-Chlorophenyl)-4-(4,5-dihydro-1H-benzo[d]azepin-3(2H)-yl)butan-1-one hydrochloride], which Ki (5-HT1A receptor; [1]) is on record?
Answer: 214 nM

Question: What about the “pKi ± SEM 5-HT2A” value (5-HT2A receptor) of the same molecule?
Answer: (6.55 ± 0.03)

Question: And the “pKi ± SEM 5-HT7” value (5-HT7 receptor; Table 5, Group 3 analogs)?
Answer: (6.68 ± 0.05)

Question: What about the Ki (5-HT7 receptor; [1]) of the same molecule?
Answer: 138 nM

Question: What about the “pKi ± SEM 5-HT2B” value (5-HT2B receptor; Table 5, Group 3 analogs) of the same molecule?
Answer: (6.26 ± 0.05)

Question: What about the “pKi ± SEM 5-HT2C” value (5-HT2C receptor; Table 5, Group 3 analogs) of the same molecule?
Answer: (6.21 ± 0.07)

Question: What about the Ki (D3 receptor) of the same molecule?
Answer: 106 nM

Question: What about the “pKi ± SEM D4” value (D4 receptor) of the same molecule?
Answer: (7.09 ± 0.04)

Question: And the “pKi ± SEM H1” value (histamine H1 receptor; Table 5, Group 3 analogs)?
Answer: (6 ± 0.3)

Question: What about the Ki (histamine H1 receptor; [1]) of the same molecule?
Answer: 1090 nM

Question: For `O=C(CCCN1CCc2ccccc2C1)c1ccccc1` [Compound 11, 4-(3,4-Dihydroisoquinolin-2(1H)-yl)-1-phenylbutan-1-one], which Ki (5-HT2B receptor) is on record?
Answer: […]

Question: And the Ki (5-HT2C receptor; [2])?
Answer: 295 nM

Question: For `N#Cc1ccc(C(=O)CCCN2CCc3ccccc3C2)cc1` [Compound 12, 4-(4-(3,4-Dihydroisoquinolin-2(1H)-yl)butanoyl)benzonitrile], which Ki (5-HT2C receptor; [3]) is on record?
Answer: 38 nM

Question: Which Ki (5-HT2B receptor) does the source give for `NC(=O)c1ccc(C(=O)CCCN2CCc3ccccc3C2)cc1` [Compound 13, 4-(4-(3,4-Dihydroisoquinolin-2(1H)-yl)butanoyl)benzamide] here?
Answer: […]

Question: And the Ki (5-HT2C receptor; [2])?
Answer: 23 nM

Question: What about the Ki (5-HT2C receptor; [3]) of the same molecule?
Answer: 28.8 nM

Question: For `O=C(CCCN1CCc2ccccc2C1)c1ccc(O)cc1` [Compound 15, 4-(3,4-Dihydroisoquinolin-2(1H)-yl)-1-(4-hydroxyphenyl) butan-1-one hydrochloride], which Ki (5-HT2C receptor; [2]) is on record?
Answer: 8.2 nM

Question: With `Cl.O=C(CCCN1CCc2ccccc2C1)c1ccc(Cl)cc1` [Compound 16, 1-(4-Chlorophenyl)-4-(3,4-dihydroisoquinolin-2(1H)-yl) butan-1-one hydrochloride] as the molecule, how does the melting point read?
Answer: 209 to 210 °C
